system: VJ-300 cells; test: In vitro test of action suppressing proliferation of cancer cells, combined administration of doxorubicin (colony formation), resistant cells; type: cell-based, Human; conditions: ADM alone or ADM + test compound 1 µg/ml, LD50 of ADM relative to ADM alone in KB cells = 1, 7 days incubation, colony count
Protocol: Human rhinopharynx cancer derived KB cells (i.e., sensitive cells) and their multi-drug resistant clone VJ-300 cells (i.e., resistant cells) were used as the test cells. As the incubation solutions, use was made of 10% fetal calf serum (Flow Laboratories) and Eagle MEM medium (Nissui Seiyaku) containing 0.292 mg/ml of L-glutamine (Flow Laboratories). The tests of the action for overcoming resistance to anti-cancer drugs or action for increasing the effect of the anti-cancer drug with the combined administration of the anti-cancer drug doxorubicin (i.e., adriamycin, ADM) and the test compound were performed as follows:
The test cells were suspended in incubation solutions and adjusted to a cell density of about 200 cells/ml. The cell suspensions were injected in 2 ml amounts into petri dishes and were incubated in a CO2 gas incubator (5% CO2, 95% air) at 37°C for 24 hours. Then, 5 µl of a predetermined concentration of the aqueous ADM solution and a predetermined concentration of a DMSO solution of the test compound were added, then the incubation was continued for a further 7 days. After the end of the incubation, the result was immobilized with methanol, Giemsa stained and measured for the number of colonies per dish. The results were used to prepare a volume-reaction curve. […] The results are shown in Table 8 to Table 10 using the concentration of LD50 of ADM in the ADM alone group by KB cells as the resistance degree 1 and calculating the resistances of the following LD50 concentrations as relative ratios. […]

In order of rising “Degree of resistance for ADM VJ-300” value:
1. CCOC(=O)C1=C(c2ccc(N3CCN(C)CC3)cc2)NC(C)=C(C(=O)OC/C=C/c2cccnc2)C1/C=C/c1ccccc1 (centres unmarked) [Compound 30, 6-methyl-2-[4-(4-methylpiperadin-1-yl)phenyl]-1,4-dihydropyridin-4-[(E)-2-phenylethenyl]-3,5-dicarboxylate 3-ethylester, 5-[(E)-3-(3-pyridyl)-2-propenyl]ester]  1.0
2. CCOC(=O)C1=C(c2ccc(-n3c(C)nc4cnccc43)cc2)NC(C)=C(C(=O)OC/C=C/c2cccnc2)C1/C=C/c1ccccc1 (centres unmarked) [Compound 25, 6-methyl-2-[4-(2-methylimidazo[4,5-c]pyridin-1-yl)phenyl]-4-[(E)-2-phenylethenyl]-1,4-dihydropyridin-3,5-dicarboxylate 3-ethylester, 5-[(E)-3-(3-pyridyl)-2-propenyl]ester]  1.1
3. CCOC(=O)C1=C(c2ccc(-n3c(C)nc4cnccc43)cc2)NC(C)=C(C(=O)OCCCCCc2cccnc2)C1/C=C/c1ccccc1 (centres unmarked) [Compound 21, 6-methyl-2-[4-(2-methylimidazo[4,5-c]pyridin-1-yl)phenyl]-4-[(E)-2-phenylethenyl]-1,4-dihydropyridin-3,5-dicarboxylate 3-ethylester, 5-[5-(3-pyridyl)pentyl]ester]  1.1
4. CCCCCC1C(C(=O)OC/C=C(/c2cccnc2)c2cccs2)=C(C)NC(c2ccc(-n3c(C)nc4cnccc43)cc2)=C1C(=O)OCC (centres unmarked) [Compound 19, 6-methyl-2-[4-(2-methylimidazo[4,5-c]pyridin-1-yl)phenyl]-4-pentyl-1,4-dihydropyridin-3,5-dicarboxylate 3-ethylester, 5-[(Z)-3-(3-pyridyl)-3-(2-thienyl)-2-propenyl]ester]  1.2
5. CCOC(=O)C1=C(c2ccc(-n3c(C)nc4cnccc43)cc2)NC(C)=C(C(=O)OC/C=C/c2cccnc2)C1C=C1CCCCC1 (centres unmarked) [Compound 29, 4-cyclohexylidenemethyl-6-methyl-2-[4-(2-methylimidazo[4,5-c]pyridin-1-yl)phenyl]-1,4-dihydropyridin-3,5-dicarboxylate 3-ethylester, 5-[(E)-3-(3-pyridyl)-2-propenyl]ester]  1.2
6. COC(=O)C1=C(c2ccc(-n3ccnc3)cc2)NC(C)=C(C(=O)OC/C=C/c2cccnc2)C1/C=C/c1ccccc1 (centres unmarked) [Compound 39, 2-[4-(1-imidazolyl)phenyl]-6-methyl-1,4-dihydropyridin-4-[(E)-2-phenylethenyl]-3,5-dicarboxylate 3-methylester, 5-[(E)-3-(3-pyridyl)-2-propenyl]ester]  1.2
7. CCOC(=O)C1=C(c2ccc(-n3c(C)nc4cnccc43)cc2)NC(C)=C(C(=O)OCCCc2cccnc2)C1CC(C)(C)C (centres unmarked) [Compound 8, 4-(2,2-dimethylpropyl)-6-methyl-2-[4-(2-methylimidazo[4,5-c]pyridin-1-yl)phenyl]-1,4-dihydropyridin-3,5-dicarboxylate 3-ethylester, 5-[3-(3-pyridyl)propyl]ester]  1.3
8. CCOC(=O)C1=C(c2ccc(-n3c(C)nc4cnccc43)cc2)NC(C)=C(C(=O)OCCCc2cccnc2)C1/C=C/c1ccccc1 (centres unmarked) [Compound 14, 6-methyl-2-[4-(2-methylimidazo[4,5-c]pyridin-1-yl)phenyl]-4-[(E)-2-phenylethenyl]-1,4-dihydropyridin-3,5-dicarboxylate 3-ethylester, 5-[3-(3-pyridyl)propyl]ester]  1.3
9. CCOC(=O)C1=C(c2ccc(-n3nnc4ccccc43)cc2)NC(C)=C(C(=O)OC/C=C/c2cccnc2)C1/C=C/c1ccccc1 (centres unmarked) [Compound 32, 2-[4-(1H-benzotriazol-1-yl)phenyl]-6-methyl-4-[(E)-2-phenylethenyl]-1,4-dihydropyridin-3,5-dicarboxylate 3-ethylester, 5-[(E)-3-(3-pyridyl)-2-propenyl]ester]  1.4
10. CCCCCC1C(C(=O)OCCCc2cccnc2)=C(C)NC(c2ccc(-n3ccnc3)cc2)=C1C(=O)OCC (centres unmarked) [Compound 44, 2-[4-(1-imidazolyl)phenyl]-6-methyl-4-pentyl-1,4-dihydropyridin-3,5-dicarboxylate 3-ethylester, 5-[3-(3-pyridyl)propyl]-ester]  1.4
11. COC(=O)C1=C(c2ccc(-n3c(C)nc4cnccc43)cc2)NC(C)=C(C(=O)OC/C=C/c2cccnc2)C1/C=C/c1ccccc1 (centres unmarked) [Compound 42, 6-methyl-2-[4-(2-methylimidazo[4,5-c]pyridin-1-yl)phenyl]-4-[(E)-2-phenylethenyl]-1,4-dihydropyridin-3,5-dicarboxylate 3-methylester, 5-[(E)-3-(3-pyridyl)-2-propenyl]ester]  2.1
12. COC(=O)C1=C(c2ccc(-n3ccnc3)cc2)NC(C)=C(C(=O)OC/C=C/c2cccnc2)C1C1CCCCC1 (centres unmarked) [Compound 38, 4-cyclohexyl-2-[4-(1-imidazolyl)phenyl]-6-methyl-1,4-dihydropyridin-3,5-dicarboxylate 3-methylester, 5-[(E)-3-(3-pyridyl)-2-propenyl]ester]  2.4
13. CCOC(=O)C1=C(c2ccc(-n3c(C)nc4cnccc43)cc2)NC(C)=C(C(=O)OCCCC(=O)c2cccnc2)C1C=C1CCCCC1 (centres unmarked) [Compound 46, 4-cyclohexylidenemethyl-6-methyl-2-[4-(2-methylimidazo[4,5-c]pyridin-1-yl)phenyl]-1,4-dihydropyridin-3,5-dicarboxylate 3-ethylester 5-(3-nicotinoylpropyl)ester]  2.5
14. CCOC(=O)C1=C(c2ccc(SC)cc2)NC(C)=C(C(=O)OC/C=C/c2cccnc2)C1/C=C/c1ccccc1 (centres unmarked) [Compound 31, 6-methyl-2-(4-methylthiophenyl)-1,4-dihydropyridin-4-[(E)-2-phenylethenyl]-3,5-dicarboxylate 3-ethylester, 5-[(E)-3-(3-pyridyl)-2-propenyl]ester]  2.6
15. CCCCC1C(C(=O)OCCCc2cccnc2)=C(C)NC(c2ccc(-n3c(C)nc4cnccc43)cc2)=C1C(=O)OCC (centres unmarked) [Compound 6, 4-butyl-6-methyl-2-[4-(2-methylimidazo[4,5-c]pyridin-1-yl)phenyl]-1,4-dihydropyridin-3,5-dicarboxylate 3-ethylester, 5-[3-(3-pyridyl)propyl]ester]  2.8
16. CCOC(=O)C1=C(c2ccc(-n3c(C)nc4cnccc43)cc2)NC(C)=C(C(=O)OCCCc2cccnc2)C1C1CCCCC1 (centres unmarked) [Compound 9, 4-cyclohexyl-6-methyl-2-[4-(2-methylimidazo[4,5-c]pyridin-1-yl)phenyl]-1,4-dihydropyridin-3,5-dicarboxylate 3-ethylester, 5-[3-(3-pyridyl)propyl]ester]  2.9
17. CCOC(=O)C1=C(c2ccc(-n3ccc4ccccc43)cc2)NC(C)=C(C(=O)OC/C=C/c2cccnc2)C1/C=C/c1ccccc1 (centres unmarked) [Compound 35, 2-[4-(1-indolyl)phenyl]-6-methyl-4-[(E)-2-phenylethenyl]-1,4-dihydropyridin-3,5-dicarboxylate 3-ethylester, 5-[(E)-3-(3-pyridyl)-2-propenyl]ester]  3.0
18. CCOC(=O)C1=C(c2ccc(-n3c(C)nc4cnccc43)cc2)NC(C)=C(C(=O)OCCCc2cccnc2)C1C=C(C)C (centres unmarked) [Compound 11, 6-methyl-2-[4-(2-methylimidazo[4,5-c]pyridin-1-yl)phenyl]-4-(2-methyl-1-propenyl)-1,4-dihydropyridin-3,5-dicarboxylate 3-ethylester, 5-[3-(3-pyridyl)propyl]ester]  3.2
19. CCCCCC1C(C(=O)OCCCN2CCN(C(c3ccccc3)c3ccccc3)CC2)=C(C)NC(c2ccc(-n3c(C)nc4ncccc43)cc2)=C1C(=O)OCC (centres unmarked) [Compound 5, 6-methyl-2-[4-(2-methylimidazo[4,5-b]pyridin-1-yl)phenyl]-4-pentyl-1,4-dihydropyridin-3,5-dicarboxylate 3-ethylester, 5-[3-(4-benzhydrylpiperadin-1-yl)propyl]ester]  4.6
20. CCOC(=O)C1=C(c2ccc(-n3c(C)nc4cnccc43)cc2)NC(C)=C(C(=O)OCCCc2cccnc2)C1Cc1ccccc1 (centres unmarked) [Compound 12, 4-benzyl-6-methyl-2-[4-(2-methylimidazo[4,5-c]pyridin-1-yl)phenyl]-1,4-dihydropyridin-3,5-dicarboxylate 3-ethylester, 5-[3-(3-pyridyl)propyl]ester]  6.5
21. COC(=O)C1=C(c2ccc(-n3c(C)nc4cnccc43)cc2)NC(C)=C(C(=O)OC/C=C/c2cccnc2)C1/C=C/c1ccsc1 (centres unmarked) [Compound 41]  7.8
22. CCOC(=O)C1=C(c2ccc(-n3c(C)nc4cnccc43)cc2)NC(C)=C(C(=O)OC/C=C/c2cccnc2)C1/C=C/c1ccoc1 (centres unmarked) [Compound 27, 4-[(E]-2-(3-furyl)ethenyl]-6-methyl-2-[4-(2-methylimidazo[4,5-c]pyridin-1-yl)phenyl]-1,4-dihydropyridin-3,5-dicarboxylate 3-ethylester, 5-[(E)-3-(3-pyridyl)-2-propenyl]ester]  8.7

In the case of COc1cccc2c1C(=O)c1c(O)c3c(c(O)c1C2=O)C[C@@](O)(C(=O)CO)C[C@@H]3O[C@H]1C[C@H](N)[C@H](O)[C@H](C)O1 [ADM, doxorubicin, reference compound], the “Degree of resistance for ADM VJ-300” value is reported as 26 - 51.

Source: EP0943615A1, “1,4-DIHYDROPYRIDINE DERIVATIVES” (Nikken Chemicals Company, Limited, priority 1996, dated 1998)
